Source: patent US11370825B2, “Polypeptides, cells, and methods involving engineered CD16” (Regents of the University of Minnesota, priority 2014, dated 2022)

What was measured:
ADAM17 = experiment: Soluble CD16a released from transfected HEK293 cells stably expressing human γ chain, ELISA (shedding); format: cell-based; settings: untreated and PMA-treated HEK293 cells stably expressing human γ chain
Method: FIG. 3. Effects of the engineered S197P mutation on CD16a and CD16b shedding. Transfected HEK293 (human embryonic kidney) cells separately expressed CD16b and CD16b/S197P (A) or CD16a and CD16a/S197P (B) at similar levels, as determined by flow cytometry (left panels). The different transfectants were treated with or without PMA (15 ng/ml for 30 minutes at 37° C.) and soluble levels of CD16 in the media supernatant were quantified by ELISA (right panels). Each treatment condition was repeated three times for each experiment and the data are representative of three independent experiments. Bar graphs show mean±SD. Statistical significance is indicated as ***P<0.001. […] Surface levels of L-selectin and CD16b/S197P on transfected and mock-transfected cells were measured using flow cytometry (histogram plots). Transfectants expressing L-selectin or L-selectin and CD16b/S197P were incubated in the presence or absence of PMA for 30 minutes at 37° C., and the mean fluorescence intensity (MFI) of L-selectin staining determined (bar graph). […] For all histogram plots, the x-axis=Log 10 fluorescence and the y-axis=cell number.
(§1) HEK293 cells (a human embryonic kidney cell line) and NK92 cells (a human NK cell line) (ATCC, Manassas, Va.) were cultured according to the depository's instructions. […] Construct expression was assessed by EGFP fluorescence and CD16 staining, as determined by flow cytometry. […]

NK92 cells = experiment: Cell surface CD16a levels on transduced NK92 cells after activation, flow cytometry; format: cell-based, human
Method: FIG. 4. Effects of the engineered S197P mutation on CD16a shedding in NK cells. NK92 cells transduced with empty vector (vector only), CD16a, or CD16a/S197P were treated without (Unstim.) or with PMA (100 ng/ml) for 30 minutes at 37° C. (A), with IL-12 and IL-18 (100 ng/ml and 400 ng/ml, respectively) for 24 hours at 37° C. (B), or with Raji cells and rituximab for 60 minutes at 37° C. (C). Cell surface levels of CD16a were determined by flow cytometry. Isotype-matched negative control antibody staining is indicated by a dotted line. (D) Parent NK92 cells and transduced cells expressing CD16a or CD16a/S197P were treated with Raji cells and rituximab in the presence or absence of the ADAM17 inhibitor BMS566394 (5 μM) for 60 minutes at 37° C. Soluble CD16a levels were determined by ELISA. Each treatment condition was repeated three times and the data are representative of three independent experiments. Bar graphs show mean±SD. Statistical significance is indicated as ***P<0.001. (E) NK92 cells expressing CD16a or CD16a/S197P were stained with the anti-ADAM17 mAbs M220, 623, 633, or an isotype-matched negative control antibody, as indicated. (F) CD56^+CD45^+ NK cells derived from mock-transduced iPSCs (left panel) or iPSCs expressing recombinant CD16a or CD16a/S197P (right panels) were incubated with or without K562 target cells for four hours at 37° C. For all histogram plots, the x-axis=Log 10 fluorescence, the y-axis=cell number, and the data are representative of at least 3 independent experiments.
as §1, with “instructions. HEK293 cells were transiently transfected with pcDNA3.1 with or without CD16b, CD16b/S197P, and/or L-selectin using Lipofectamine 2000 (Invitrogen, Carlsbad, Calif.) according to the manufacturer's instructions.” for “instructions.”

CD16a/S197P: Human CD16a (FcγRIIIa, SEQ ID NO:1) with serine-197 substituted by proline in the membrane proximal cleavage region; expressed recombinantly in cells
soluble levels of receptor in media supernatant compared to CD16a (ADAM17): significantly lower levels

CD16a: Wild-type human IgG Fc receptor CD16a (FcγRIIIa), valine allelic variant, recombinant comparator [reference compound]
down-regulation in cell surface expression of CD16 (NK92 cells; IL-12 100 ng/ml and IL-18 400 ng/ml, 24 hours at 37° C.): appreciable down-regulation
down-regulation in cell surface expression of CD16 (NK92 cells; PMA 100 ng/ml, 30 minutes at 37° C.): marked down-regulation
down-regulation in cell surface expression of CD16 (NK92 cells; Raji cells treated with rituximab, 60 minutes at 37° C.): induced the down-regulation
